Results reported in US9073930B2, “Dipeptidyl peptidase-IV inhibitors for the treatment or prevention of diabetes” (Merck Sharp & Dohme Corp., priority 2012, dated 2015).

Legend:
[1] = molecular target: T1, dipeptidyl peptidase-IV enzyme (DPP-4) (Homo sapiens, UniProt P27487); assay: Continuous fluorometric DPP-4 inhibition assay with substrate Gly-Pro-AMC; format: biochemical; settings: soluble human DPP-4, 50 μM Gly-Pro-AMC, pH 7.5, room temperature
T1 construct: soluble (transmembrane domain and cytoplasmic extension excluded) human protein; made in house; host or cells: baculovirus expression system (Bac-To-Bac, Gibco BRL)
Description: Inhibition constants are determined as follows. A continuous fluorometric assay is employed with the substrate Gly-Pro-AMC, which is cleaved by DPP-4 to release the fluorescent AMC leaving group. The kinetic parameters that describe this reaction are as follows: Km=50 μM; kcat=75 s^−1; kcat/Km=1.5×10^6 M^−1 s^−1. A typical reaction contains approximately 50 pM enzyme, 50 μM Gly-Pro-AMC, and buffer (100 mM HEPES, pH 7.5, 0.1 mg/ml BSA) in a total reaction volume of 100 μL. Liberation of AMC is monitored continuously in a 96-well plate fluorometer using an excitation wavelength of 360 nm and an emission wavelength of 460 nm. Under these conditions, approximately 0.8 μM AMC is produced in 30 minutes at 25 degrees C. The enzyme used in these studies was soluble (transmembrane domain and cytoplasmic extension excluded) human protein produced in a baculovirus expression system (Bac-To-Bac, Gibco BRL). […] To measure the dissociation constants for compounds, solutions of inhibitor in DMSO were added to reactions containing enzyme and substrate (final DMSO concentration is 1%). All experiments were conducted at room temperature using the standard reaction conditions described above. To determine the dissociation constants (Ki), reaction rates were fit by non-linear regression to the Michaelis-Menton equation for competitive inhibition. […]

[2] = tested on: hematopoiesis; settings: mouse model of cyclophosphamide-induced neutropenia; WO 99/56753; cited from earlier work
[3] = molecular target: DPP-4 (Homo sapiens, UniProt P27487); settings: cited from earlier work
Chain of DPP-4 (P27487 whole entry, species assumed): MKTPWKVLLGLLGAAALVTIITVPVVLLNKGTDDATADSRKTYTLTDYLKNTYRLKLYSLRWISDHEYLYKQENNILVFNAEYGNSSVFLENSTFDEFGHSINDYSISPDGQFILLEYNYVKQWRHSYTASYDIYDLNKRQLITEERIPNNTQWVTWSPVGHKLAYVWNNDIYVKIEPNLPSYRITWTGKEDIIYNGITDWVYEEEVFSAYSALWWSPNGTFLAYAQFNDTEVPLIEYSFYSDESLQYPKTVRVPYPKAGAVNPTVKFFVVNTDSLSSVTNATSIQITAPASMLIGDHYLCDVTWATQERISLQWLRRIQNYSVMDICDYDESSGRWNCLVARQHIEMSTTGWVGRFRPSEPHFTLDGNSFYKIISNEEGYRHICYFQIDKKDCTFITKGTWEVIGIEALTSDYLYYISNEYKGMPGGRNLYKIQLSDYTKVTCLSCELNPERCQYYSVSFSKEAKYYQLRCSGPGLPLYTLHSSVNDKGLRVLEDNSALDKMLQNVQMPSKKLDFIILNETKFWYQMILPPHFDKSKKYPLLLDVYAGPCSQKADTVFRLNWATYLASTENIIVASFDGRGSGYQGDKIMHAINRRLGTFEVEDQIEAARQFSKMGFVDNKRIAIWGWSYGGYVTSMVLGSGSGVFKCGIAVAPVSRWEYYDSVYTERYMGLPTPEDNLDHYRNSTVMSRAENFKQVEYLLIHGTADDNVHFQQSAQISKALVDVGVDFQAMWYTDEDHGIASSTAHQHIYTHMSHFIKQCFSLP

T1 sequence (P27487 29-766 limits assumed): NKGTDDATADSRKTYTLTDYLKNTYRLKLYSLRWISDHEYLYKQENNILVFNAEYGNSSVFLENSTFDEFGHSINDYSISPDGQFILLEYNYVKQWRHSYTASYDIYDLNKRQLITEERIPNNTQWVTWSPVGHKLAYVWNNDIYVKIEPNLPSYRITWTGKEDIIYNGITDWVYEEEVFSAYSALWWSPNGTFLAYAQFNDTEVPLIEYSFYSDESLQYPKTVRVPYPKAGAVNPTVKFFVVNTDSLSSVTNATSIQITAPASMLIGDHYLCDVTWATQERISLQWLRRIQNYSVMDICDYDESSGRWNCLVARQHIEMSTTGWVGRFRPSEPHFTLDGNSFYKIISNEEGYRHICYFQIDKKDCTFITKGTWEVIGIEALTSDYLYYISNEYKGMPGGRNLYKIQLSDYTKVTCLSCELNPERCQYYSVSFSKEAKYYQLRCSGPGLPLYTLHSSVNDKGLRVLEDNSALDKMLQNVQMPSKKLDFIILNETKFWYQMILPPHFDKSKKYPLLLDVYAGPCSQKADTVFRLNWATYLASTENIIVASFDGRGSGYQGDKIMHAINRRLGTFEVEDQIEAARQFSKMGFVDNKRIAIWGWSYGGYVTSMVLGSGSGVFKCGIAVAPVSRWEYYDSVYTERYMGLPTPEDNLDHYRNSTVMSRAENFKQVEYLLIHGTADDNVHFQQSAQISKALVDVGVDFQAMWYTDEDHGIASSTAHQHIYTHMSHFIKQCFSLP

Structure (SMILES)	IC50 [1]	other results
CS(=O)(=O)n1cc2c(n1)CN([C@H]1CO[C@H](c3sccc3F)[C@@H](N)C1)C2 (racemic) [Example 1]	90 nM	
CS(=O)(=O)n1cc2c(n1)CN([C@H]1CO[C@H](c3cc(F)cnc3F)[C@@H](N)C1)C2 [Example 2]	100 nM	
CC(C)[C@H](N)C(=O)N1CCC[C@H]1B(O)O [Val-Boro-Pro]		hematopoiesis [2]: stimulated hematopoiesis
CC[C@H](C)[C@H](N)C(=O)N1CCC[C@H]1C(=O)N[C@H](C(=O)O)[C@@H](C)CC [diprotin A]		degradation of GRF in plasma to GRF[3-44] [3]: prevented
